From paper PMC8253137, “Microbiota-derived butyrate is an endogenous HIF prolyl hydroxylase inhibitor” (Gut Microbes, 2021)

System: T84 cells
Experiment: 2-OG levels in T84 cells
Assay type: cell-based
Conditions: 3 h
Protocol: T84 cells were cultured in 95% air with 5% CO2 at 37°C in standard media made of DMEM:F-12 supplemented with 10% calf serum, 1% penicillin/streptomycin, and 1% GlutaMAX™ (ThermoFisher Scientific) on 9.6 cm^2 6-well plates (ThermoFisher Scientific). Real-time oxygen sensing was done using the SensorDish Reader from Applikon Biotechnology as described previously with T84 cells plated on 0.33 cm^2 transwell inserts (Corning, 0.4 μm).[12] All MCPA treatments included a 2 h pretreatment with MCPA before treatment with butyrate.
Metabolites Extractions and HPLC-DAD: Cell and colon tissue metabolites were extracted and analyzed as previously described with minor variations.[61],[62] The metabolites were detected by absorption at wavelengths of 210, 254, and 280 nm, with their absorbance spectra and retention times verified by co-injection with authentic standards. Metabolites for HPLC-ESI MS analyses were resuspended in deionized water (pH 7.2).
HPLC-ESI MS: Analyses were performed on an Agilent Technologies 1260 Infinity II LC/MSD iQ with electrospray ionization (ESI) mass detection. Negative ion mass-to-charge ratios (m/z) were scanned from 50 to 500. The metabolite extracts were chromatographed using a Sepax Carbomix column (Pb-Np5:8%, 5 μm, non-porous, 4.6 × 300 mm) (mobile phase A: water; mobile phase B: acetonitrile; column temperature, 75°C). Chromatographic separation was performed using a combination of isocratic and gradient methods, including column washing and equilibration periods at the end (0 min: 100% A, 0.12 mL/min; 60 min: 100% A, 0.12 mL/min; 70 min: 70% A, 0.5 mL/min; 145 min: 70% A, 0.5 mL/min; 150 min: 100% A, 0.5 mL/min; 164 min, 100% A, 0.5 mL/min; 165 min, 100% A, 0.12 mL/min; 170 min, 100% A, 0.12 mL/min).

CCCC(=O)O [Butyrate]
2-OG levels compared to control (10 mM butyrate or 30 μM IOX2): significantly increased | 2-OG levels in the presence of MCPA (10 mM butyrate with 1 mM MCPA): significantly increased
